Values of other authors as cited in patent US20170105937A1, “OLAPARIB CO-PRECIPITATE AND PREPARATION METHOD THEREOF” (CADILA HEALTHCARE LIMITED, priority 2015, published 2017).

Conditions: poor solubility and moderate permeability

For `O=C(c1cc(Cc2n[nH]c(=O)c3ccccc23)ccc1F)N1CCN(C(=O)C2CC2)CC1` [Olaparib, 4-[3-(4-cyclopropanecarbonyl-piperazine-1-carbonyl)-4-fluoro-benzyl]-2H-phthalazin-1-one], the “Biopharmaceutics Classification System (BCS) class” value is listed as “class 4”.
